Reference: patent US10849907B2, “Imidazopyridine derivatives and the use thereof as medicament” (Boehringer Ingelheim International GmbH, priority 2017, dated 2020)

How the values were obtained:
NMDA NR1/NR2B receptor = target: T1, NMDA NR1/NR2B receptor (Homo sapiens, UniProt Q05586+Q13224); assay: In vitro NMDA NR1/NR2b cell assay (FLIPR, intracellular calcium induced by glycine/glutamate); type: cell-based; settings: HEK293 cells expressing NMDA NR1/NR2B, 20 μM glycine, 1 μM glutamate, compounds of the invention (Table 1)
T1 construct: host or cells: HEK293, tetracycline-inducible expression
Description: A human HEK293 cell line with tetracyclin-inducible expression of NMDA NR1/NR2B receptor was used as a test system for compound efficacy and potency. The cell line was purchased from ChanTest, Catalog # CT6121. Compound activity was determined by measuring the effect of compounds on intracellular calcium concentration induced by glycine/glutamate agonism in a FLIPRtetra system (Molecular Devices).
The cells were obtained as frozen cells in cryo-vials and stored until use at −150° C. Cells were grown in culture medium (DMEM/F12, 10% FBS, 5 μg/mL Blasticidin, 150 μg/mL Zeozin, 500 μg/mL Geneticin). […] For sub-culturing the cells were detached from flasks by Versene. For the assay, cells were detached, washed twice with induction medium (DMEM/F12 without glutamine, 10% FBS, 2 μg/mL Tetracycline, 2 mM Ketamine) and seeded to 384 well pure coat amine plates (BD 359324, 50000 cells per well in 50 μl) 48 h prior to assay in induction medium.
The test compounds were dissolved in 100% DMSO at a concentration of 10 mM and in a first step diluted in DMSO to a concentration of 5 mM, followed by serial dilution steps in 100% DMSO. Dilution factor and number of dilution steps may vary according to needs. Typically 8 different concentrations by 1:5 dilutions were prepared in duplicate, further intermediate dilutions (1:37.5) of the substances were carried out with aqueous assay buffer (137 mM NaCl, 4 mM KCl, 1.8 mM CaCl, 10 mM HEPES, 10 mM Glucose, pH 7.4) resulting in a compound concentration 3 times above the final test concentration and DMSO at 2.7% resulting in 0.9% final DMSO concentration in the assay.
At the assay day cells were washed 3× with assay puffer, 10 μL buffer remained in the wells after washing. 10 μL Ca kit loading buffer (AAT Bioquest) was added to the cells and the plates were incubated with lid for 60 minutes at r.t. 20 μl assay buffer containing 60 μM glycine (20 μM final) and 3 μM glutamate (1 μM final) was added to column 1-23. Fluorescence (indicating the calcium influx as a result of the NR1/NR2B ion channel activation) was read on the FLIPRtetra device for 60 seconds to monitor the glutamate induced effects. After 2 minutes 20 μL of compound or controls (row 1-22) in assay buffer were carefully added to the wells. […] The average of 2 measurements at 5 minutes and 5 min 10 seconds after compound addition is calculated and further used for IC50 calculations. Each assay microtiter plate contained wells (in column 23 or 24) with DMSO controls instead of compound as controls for glycine/glutamate induced fluorescence (high controls) and wells with 1 μM of a reference NR2b NAM as low controls (Compound 22; reference: Layton, Mark E et al, ACS Chemical Neuroscience 2011, 2(7), 352-362).
The output file of the reader contains the well number and measured average fluorescence units. For data evaluation and calculation, the measurement of the low control was set as 0% control and the measurement of the high control was set as 100% control. The IC50 values were calculated using the standard 4 parameter logistic regression formula. Calculation: [y=(a−d)/(1+(x/c)^b)+d], a=low value, d=high value; x=conc M; c=IC50 M; b=slope.

human MDR1 (P-gp) = target: T2, human MDR1 (P-gp) (Homo sapiens, UniProt P08183); assay: MDCK assay MDR-1 (p-GP): permeability across MDCK-MDR1 monolayers; type: in vitro ADME; settings: for Papp A→B: MDCK-MDR1 monolayers, apical-to-basal, pH 7.4, 1 or 10 μM; for efflux ratio: pH 7.4, MDCK-MDR1, Papp (b-a) divided by Papp (a-b)
T2 construct: expressed in transfected cells; host or cells: MDCKII (Madin-Darby canine kidney) cells
Description: The MDCK assays provide information on the potential of a compound to pass the blood brain barrier. Permeability measurements across polarized, confluent MDCK-MDR1 cell monolayers grown on permeable filter supports are used as an in vitro absorption model: apparent permeability coefficients (PE) of the compounds across the MDCK-MDR1 cell monolayers are measured (pH 7.4, 37° C.) in apical-to-basal (AB) and basal-to-apical (BA) transport direction. The AB permeability (PEAB) represents drug absorption from the blood into the brain and the BA permeability (PEBA) drug efflux from the brain back into the blood via both, passive permeability as well as active transport mechanisms mediated by efflux and uptake transporters that are expressed on the MDCK-MDR1 cells, predominantly by the overexpressed human MDR1. Identical or similar permeabilities in both transport directions indicate passive permeation, vectorial permeability points to additional active transport mechanisms. Higher PEBA than PEAB (PEBA/PEAB >5) indicates the involvement of active efflux mediated by MDR1, which might compromise the goal to achieve sufficient brain exposure. Therefore, this assay provides valuable support for selection of compounds applicable for further in vivo testing. High permeability not limited by efflux at the blood brain barrier is a favourable characteristic for compounds that are to be used for drugs acting primarily in the CNS. Similar concepts are applicable to the MDCK BCRP assay and its interpretation; consequently, to ensure high permeability at the blood brain barrier, it is highly preferred to minimize the efflux (efflux <5) at both MDR1 and BCRP transporters.
Apparent permeability coefficients (Papp) of the compounds across the MDCK-MDR1 monolayers (MDCKII cells transfected with human MDR1 cDNA expression plasmid) are measured in apical-to-basal (AB) and basal-to-apical (BA) direction.
MDCK-MDR1 cells (6×10^5 cells/cm^2) are seeded on filter inserts (Corning, Transwell, polycarbonate, 0.4 μm pore size) and cultured for 9 to 10 days. Compounds dissolved in DMSO stock solution (1-20 mM) are diluted with HTP-4 aqueous buffer (128.13 mM NaCl, 5.36 mM KCl, 1 mM MgSO4, 1.8 mM CaCl2, 4.17 mM NaHCO3, 1.19 mM Na2HPO4, 0.41 mM NaH2PO4, 15 mM HEPES, 20 mM glucose, pH 7.4) supplemented with 0.25% BSA to prepare the transport solutions (final concentration: 1 or 10 μM, final DMSO <=0.5%). The transport solution is applied to the apical or basolateral donor side for measuring A-B or B-A permeability, respectively. The receiver side contains HTP-4 buffer supplemented with 0.25% BSA. Samples are collected at the start and end of experiment from the donor and at various time intervals for up to 2 hours also from the receiver side for concentration measurement by HPLC-MS/MS. Sampled receiver volumes are replaced with fresh receiver solution. Efflux ratio is calculated dividing the Papp (b-a) values by the Papp (a-b) values.

[1] = Metabolic stability in pooled human liver microsomes; type: in vitro ADME; settings: pH 7.6; pooled human liver microsomes 1 mg/mL, 1 μM compound, 37° C., NADPH; read-out: Half-life - t½ human liver microsomes
Description: Stability in human liver microsomes refers to the susceptibility of compounds to biotransformation in the context of selecting and/or designing drugs with favorable pharmacokinetic properties. The primary site of metabolism for many drugs is the liver. Human liver microsomes contain the cytochrome P450s (CYPs), and thus represent a model system for studying drug metabolization in vitro. Enhanced stability in human liver microsomes is associated with several advantages, including increased bioavailability and adequate half-life, which can enable lower and less frequent dosing of patients. Thus, enhanced stability in human liver microsomes is a favorable characteristic for compounds that are to be used for drugs.
The metabolic degradation of the test compound was assayed at 37° C. with pooled human liver microsomes. The final incubation volume of 60 μl per time point contains TRIS buffer pH 7.6 at room temperature (0.1 M), magnesium chloride (5 mM aqueous solution), microsomal protein (1 mg/mL for human) and the test compound at a final concentration of 1 μM. Following a short preincubation period at 37° C., the reactions were initiated by addition of betanicotinamide adenine dinucleotide phosphate, reduced form (NADPH, 1 mM), and terminated by transferring an aliquot into solvent after different time points. After centrifugation (10000 g, 5 min), an aliquot of the supernatant was assayed by LC-MS/MS for the amount of parent compound. The half-life was determined by the slope of the semi-logarithmic plot of the concentration-time profile.

T2 sequence (P08183 whole entry): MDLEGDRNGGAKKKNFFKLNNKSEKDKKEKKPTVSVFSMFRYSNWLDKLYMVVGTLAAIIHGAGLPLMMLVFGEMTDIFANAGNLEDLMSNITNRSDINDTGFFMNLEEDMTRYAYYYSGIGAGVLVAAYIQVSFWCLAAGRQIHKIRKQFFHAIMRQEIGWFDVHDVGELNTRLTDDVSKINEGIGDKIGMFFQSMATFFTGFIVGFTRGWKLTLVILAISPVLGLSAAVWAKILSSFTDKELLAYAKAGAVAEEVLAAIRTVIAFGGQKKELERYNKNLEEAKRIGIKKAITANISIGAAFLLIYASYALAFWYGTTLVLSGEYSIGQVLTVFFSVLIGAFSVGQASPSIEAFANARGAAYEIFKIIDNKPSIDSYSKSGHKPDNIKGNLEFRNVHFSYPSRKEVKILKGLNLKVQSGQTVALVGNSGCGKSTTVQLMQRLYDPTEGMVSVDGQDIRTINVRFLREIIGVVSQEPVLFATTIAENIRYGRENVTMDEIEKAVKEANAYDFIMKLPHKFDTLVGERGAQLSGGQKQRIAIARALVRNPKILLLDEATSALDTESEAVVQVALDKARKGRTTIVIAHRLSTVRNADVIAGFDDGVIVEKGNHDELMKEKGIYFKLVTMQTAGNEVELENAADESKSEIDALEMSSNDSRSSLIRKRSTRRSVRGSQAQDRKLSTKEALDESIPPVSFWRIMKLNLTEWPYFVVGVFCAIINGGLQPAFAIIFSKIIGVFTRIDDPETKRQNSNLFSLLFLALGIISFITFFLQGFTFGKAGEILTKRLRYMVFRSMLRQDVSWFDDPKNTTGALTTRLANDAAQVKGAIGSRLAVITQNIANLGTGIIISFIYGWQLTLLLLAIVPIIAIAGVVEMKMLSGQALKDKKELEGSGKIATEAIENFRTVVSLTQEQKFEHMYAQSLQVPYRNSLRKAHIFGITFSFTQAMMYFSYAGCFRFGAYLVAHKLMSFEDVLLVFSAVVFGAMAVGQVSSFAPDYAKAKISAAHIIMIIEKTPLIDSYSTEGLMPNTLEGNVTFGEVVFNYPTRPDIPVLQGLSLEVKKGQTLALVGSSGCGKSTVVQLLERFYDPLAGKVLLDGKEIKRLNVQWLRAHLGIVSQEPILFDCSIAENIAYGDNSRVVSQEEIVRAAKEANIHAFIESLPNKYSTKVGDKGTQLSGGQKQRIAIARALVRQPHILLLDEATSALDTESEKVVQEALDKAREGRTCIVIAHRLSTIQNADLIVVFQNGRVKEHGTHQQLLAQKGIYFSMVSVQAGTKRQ
T1 sequence (Q13224 27-1484, other chains not shown): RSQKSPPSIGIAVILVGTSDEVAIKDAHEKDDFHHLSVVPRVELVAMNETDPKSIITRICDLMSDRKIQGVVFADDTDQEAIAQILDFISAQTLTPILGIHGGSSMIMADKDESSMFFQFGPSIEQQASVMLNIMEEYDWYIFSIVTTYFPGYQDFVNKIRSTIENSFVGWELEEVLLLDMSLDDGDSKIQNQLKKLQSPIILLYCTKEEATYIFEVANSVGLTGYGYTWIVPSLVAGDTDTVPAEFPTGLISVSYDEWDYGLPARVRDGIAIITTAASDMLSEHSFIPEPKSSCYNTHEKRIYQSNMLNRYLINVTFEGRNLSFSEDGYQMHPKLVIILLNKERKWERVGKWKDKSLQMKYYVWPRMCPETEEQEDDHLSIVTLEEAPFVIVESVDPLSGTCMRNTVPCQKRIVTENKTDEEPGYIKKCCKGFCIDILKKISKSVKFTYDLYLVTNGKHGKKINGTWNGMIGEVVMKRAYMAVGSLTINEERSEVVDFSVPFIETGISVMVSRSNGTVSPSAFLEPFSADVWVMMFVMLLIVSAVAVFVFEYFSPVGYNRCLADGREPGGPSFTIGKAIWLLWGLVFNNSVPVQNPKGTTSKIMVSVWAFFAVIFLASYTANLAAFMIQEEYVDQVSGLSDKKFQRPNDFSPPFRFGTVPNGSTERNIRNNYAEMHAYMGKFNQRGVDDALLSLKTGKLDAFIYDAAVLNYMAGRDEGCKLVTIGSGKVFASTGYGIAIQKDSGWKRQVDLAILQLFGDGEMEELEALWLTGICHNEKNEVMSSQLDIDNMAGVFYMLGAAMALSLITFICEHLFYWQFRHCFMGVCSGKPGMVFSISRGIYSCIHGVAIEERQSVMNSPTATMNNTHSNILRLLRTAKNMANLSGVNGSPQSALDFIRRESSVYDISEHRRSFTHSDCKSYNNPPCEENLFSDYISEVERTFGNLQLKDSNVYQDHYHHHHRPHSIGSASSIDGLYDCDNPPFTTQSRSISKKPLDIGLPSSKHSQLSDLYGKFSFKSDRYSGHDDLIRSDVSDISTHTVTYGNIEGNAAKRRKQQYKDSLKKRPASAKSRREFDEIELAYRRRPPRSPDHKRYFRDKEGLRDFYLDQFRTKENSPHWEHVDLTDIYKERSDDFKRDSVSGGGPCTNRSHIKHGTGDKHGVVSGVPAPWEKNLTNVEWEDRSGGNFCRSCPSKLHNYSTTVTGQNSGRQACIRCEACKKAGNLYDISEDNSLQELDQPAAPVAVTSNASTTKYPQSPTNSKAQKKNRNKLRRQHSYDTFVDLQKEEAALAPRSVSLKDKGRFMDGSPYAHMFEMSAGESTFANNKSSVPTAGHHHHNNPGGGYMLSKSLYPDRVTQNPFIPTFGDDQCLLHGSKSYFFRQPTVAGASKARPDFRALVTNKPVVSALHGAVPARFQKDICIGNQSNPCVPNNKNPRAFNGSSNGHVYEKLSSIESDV

IC50 (NMDA NR1/NR2B receptor) [nM]	Papp A→B (human MDR1 (P-gp)) [×10⁻⁶ cm/s]	efflux ratio (human MDR1 (P-gp))	half-life at 1 µM [1] [min]	SMILES
477				O=C(OCc1ccc(Cl)c(F)c1)N1CCO[C@H](c2nc3cccnc3[nH]2)C1 [Example 25]
293	49	1.16	22	Cc1cccc(COC(=O)N2CCO[C@H](c3nc4cccnc4[nH]3)C2)c1 [Example 9]
475	44.4	1.48	40	Cc1ccnc2[nH]c([C@@H]3CN(C(=O)OCc4ccc(F)cc4)CCO3)nc12 [Example 6]
228			24	Cc1cc(F)ccc1COC(=O)N1CCO[C@H](c2nc3cccnc3[nH]2)C1 [Example 4]
748				O=C(OCc1ccc(F)c(F)c1)N1CCO[C@H](c2nc3cccnc3[nH]2)C1 [Example 24]
